Test results as given in patent US20240041042A1, “1-(PYRIDYL)-5-AZINYLPYRAZOLE DERIVATIVES, AND THEIR USE FOR CONTROL OF UNDESIRED PLANT GROWTH” (Bayer Aktiengesellschaft, priority 2020, published 2024).
Where two headings read alike, the source gives them in different places.

Assays:
Assay type in all cases: in vivo
[1] = tested on: Alopecurus myosuroides (ALOMY); assay: Pre-emergence herbicidal action against ALOMY; conditions: scored visually after about 3 weeks, 100% = plants have died
Method in brief: (§1)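 Herbicide applied to soil before seedling emergence, at 600 l/ha spray volume with 0.5% additive and rates up to 320 g/ha. Evaluation: visual percentage effect, about 3 weeks later, greenhouse-grown pots compared with untreated ones.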

[2] = tested on: Amaranthus retroflexus (AMARE); assay: Pre-emergence herbicidal action against AMARE; conditions: visual scoring after about 3 weeks vs untreated controls
Method in brief: as §1

[3] = tested on: Avena fatua (AVEFA); assay: Pre-emergence herbicidal action against AVEFA; conditions: 320 g/ha, visual scoring after about 3 weeks vs untreated controls
Method in brief: as §1

[4] = tested on: Digitaria sanguinalis (DIGSA); assay: Pre-emergence herbicidal action against DIGSA
Text: Seeds of monocotyledonous and dicotyledonous weed plants and crop plants are placed in plastic or organic planting pots and covered with soil. The compounds of the invention, formulated in the form of wettable powders (WP) or as emulsion concentrates (EC), are then applied to the surface of the covering soil as aqueous suspension or emulsion with addition of 0.5% additive at a water application rate equivalent to 600 l/ha. After the treatment, the pots are placed in a greenhouse and kept under good growth conditions for the trial plants. After about 3 weeks, the effect of the preparations is scored visually in comparison with untreated controls as percentages. For example, 100% activity=the plants have died, 0% activity=like control plants.
Tables A1 to A13 below show the effects of selected compounds of the general formula (I) on various harmful plants and at an application rate corresponding to 320 g/ha or lower, which were obtained by the experimental procedure mentioned above. The appendices “a”, “b” and “c” give differentiation by dosage used with otherwise the same harmful plants tested.

[5] = tested on: Echinochloa crus-galli (ECHCG); assay: Pre-emergence herbicidal action against ECHCG
Method in brief: as §1

[6] = tested on: Lolium rigidum (LOLRI); assay: Pre-emergence herbicidal action against LOLRI
Method in brief: as §1

[7] = tested on: Matricaria inodora (MATIN); assay: Pre-emergence herbicidal action against MATIN; conditions: dosage 320 g/ha
Method in brief: as §1

[8] = tested on: Polygonum convolvulus (POLCO); assay: Pre-emergence herbicidal action against POLCO
Method in brief: as §1

[9] = tested on: Setaria viridis (SETVI); assay: Pre-emergence herbicidal action against SETVI
Method in brief: as §1

[10] = tested on: Verconica persica (VERPE); assay: Pre-emergence herbicidal action against VERPE; conditions: dosage 320 g/ha
Method in brief: as §1

[11] = tested on: Viola tricolor (VIOTR); assay: Pre-emergence herbicidal action against VIOTR
Method in brief: as §1

[12] = tested on: Abutilon theophrasti (ABUTH); assay: Post-emergence herbicidal action against ABUTH; conditions: 320 g/ha, visual rating about 3 weeks after treatment vs untreated controls (100% = plants have died, 0% = like control plants)
Method in brief: (§2)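 Values are percent visual activity (0% like control, 100% plants dead) after about 3 weeks in the greenhouse. Treatment: post-emergence spray at one-leaf stage, 600 l/ha spray volume, 0.5% additive, doses 320 g/ha or lower.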

[13] = tested on: Alopecurus myosuroides (ALOMY); assay: Post-emergence herbicidal action against ALOMY; conditions: visual rating about 3 weeks after treatment vs untreated controls (100% = plants have died, 0% = like control plants)
Method in brief: as §2

[14] = tested on: Amaranthus retroflexus (AMARE); assay: Post-emergence herbicidal action against AMARE
Method in brief: as §2

[15] = tested on: Avena fatua (AVEFA); assay: Post-emergence herbicidal action against AVEFA; conditions: 320 g/ha, visual rating about 3 weeks after treatment
Method in brief: as §2

[16] = tested on: Digitaria sanguinalis (DIGSA); assay: Post-emergence herbicidal action against DIGSA; conditions: 320 g/ha, visual rating about 3 weeks after treatment
Method in brief: as §2

[17] = tested on: Echinochloa crus-galli (ECHCG); assay: Post-emergence herbicidal action against ECHCG
Method in brief: as §2

[18] = tested on: Lolium rigidum (LOLRI); assay: Post-emergence herbicidal action against LOLRI; conditions: dosage 320 g/ha
Method in brief: as §2

[19] = tested on: Matricaria inodora (MATIN); assay: Post-emergence herbicidal action against MATIN
Method in brief: as §2

[20] = tested on: Pharbitis purpurea (PHBPU); assay: Post-emergence herbicidal action against PHBPU; conditions: dosage 320 g/ha
Method in brief: as §2

[21] = tested on: Polygonum convolvulus (POLCO); assay: Post-emergence herbicidal action against POLCO
Method in brief: as §2

[22] = tested on: Setaria viridis (SETVI); assay: Post-emergence herbicidal action against SETVI
Method in brief: as §2

[23] = tested on: Verconica persica (VERPE); assay: Post-emergence herbicidal action against VERPE
Method in brief: as §2

[24] = tested on: Viola tricolor (VIOTR); assay: Post-emergence herbicidal action against VIOTR
Method in brief: as §2

[25] = tested on: Oryza sativa (ORYSA); conditions: crop plant compatibility, effect in comparison to untreated controls
Method in brief: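 Test crops were treated 2 to 3 weeks after sowing, once they reached one leaf, by spraying compound in water with 0.5% additive at 600 l/ha. Visual scoring compared them with untreated controls roughly 3 weeks on, and appendices a, b and c denote different doses.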

O=C(O)COc1nn(-c2ccccn2)c(-c2cncnc2)c1Br [Example I-66]
Pre-emergence action against ALOMY ([1]; 80 g/ha): 100%
Pre-emergence action against ALOMY ([1]; 320 g/ha): 100%
Pre-emergence action against AMARE in % ([2]; 80 g/ha): 90%
Pre-emergence action against AMARE in % ([2]; 320 g/ha): 100%
Pre-emergence action against AVEFA in % [3]: 90%
Pre-emergence action against DIGSA in % ([4]; 80 g/ha, visual scoring after about 3 weeks vs untreated controls): 100%
Pre-emergence action against DIGSA in % ([4]; dosage 320 g/ha): 100%
Pre-emergence action against ECHCG in % ([5]; dosage 80 g/ha): 80%
Pre-emergence action against ECHCG in % ([5]; dosage 320 g/ha): 100%
Pre-emergence action against LOLRI in % ([6]; dosage 80 g/ha): 80%
Pre-emergence action against LOLRI in % ([6]; dosage 320 g/ha): 100%
Pre-emergence action against MATIN in % [7]: 90%
Pre-emergence action against POLCO in % ([8]; dosage 80 g/ha): 90%
Pre-emergence action against POLCO in % ([8]; dosage 320 g/ha): 90%
Pre-emergence action against SETVI in % ([9]; dosage 80 g/ha): 100%
Pre-emergence action against SETVI in % ([9]; dosage 320 g/ha): 100%
Pre-emergence action against VERPE in % [10]: 100%
Pre-emergence action against VIOTR in % ([11]; 320 g/ha, Viola tricolor): 100%
Pre-emergence action against VIOTR in % ([11]; dosage 80 g/ha): 90%
Post-emergence action against ABUTH in % [12]: 80%
Post-emergence action against ALOMY in % ([13]; 80 g/ha): 100%
Post-emergence action against ALOMY in % ([13]; 320 g/ha): 100%
Post-emergence action against AMARE in % ([14]; 80 g/ha, visual rating about 3 weeks after treatment vs untreated controls (100% = plants have died, 0% = like control plants)): 80%
Post-emergence action against AMARE in % ([14]; 320 g/ha, visual rating about 3 weeks after treatment): 90%
Post-emergence action against AVEFA in % [15]: 100%
Post-emergence action against DIGSA in % [16]: 90%
Post-emergence action against ECHCG in % ([17]; dosage 80 g/ha): 80%
Post-emergence action against ECHCG in % ([17]; dosage 320 g/ha): 90%
Post-emergence action against LOLRI in % [18]: 90%
Post-emergence action against MATIN in % ([19]; dosage 80 g/ha): 80%
Post-emergence action against MATIN in % ([19]; dosage 320 g/ha): 90%
Post-emergence action against PHBPU in % [20]: 80%
Post-emergence action against POLCO in % ([21]; dosage 80 g/ha): 80%
Post-emergence action against POLCO in % ([21]; dosage 320 g/ha): 90%
Post-emergence action against SETVI in % ([22]; dosage 80 g/ha): 80%
Post-emergence action against SETVI in % ([22]; dosage 320 g/ha): 90%
Post-emergence action against VERPE in % ([23]; 320 g/ha, VERPE): 90%
Post-emergence action against VERPE in % ([23]; dosage 80 g/ha): 90%
Post-emergence action against VIOTR in % ([24]; 80 g/ha): 80%
Post-emergence action against VIOTR in % ([24]; 320 g/ha): 90%
Post-emergence action against ORYSA in % ([25]; 80 g/ha): 10%
Post-emergence action against ORYSA in % ([25]; 320 g/ha): 20%
